# Measured values as given in patent US11786471B2, “Complex disintegrant system for oral solid preparation and oral solid preparation comprising said complex disintegrant system” (WUHAN LL SCIENCE AND TECHNOLOGY DEVELOPMENT CO., LTD., priority 2016, dated 2023).
# How the values were obtained:
# [1] = test system: spontaneously hypertensive rats; experiment: Heart rate change in spontaneously hypertensive rats; type: in vivo, rat; conditions: SHR; for heart rate lowering effect compared with the corresponding unsalted compound: oral administration, result in words; for Heart rate change, 1 hour after administration (average ± standard error) / Heart rate change, 3 hours after administration (average ± standard error) / Heart rate change, 5 hours after administration (average ± standard error) / Heart rate change, 7 hours after administration (average ± standard error) / Heart rate change, 10 hours after administration (average ± standard error) / Heart rate change, 24 hours after administration (average ± standard error): intragastric, 1 mg/kg (calculated by effective dose of Azilsartan), relative to before administration
# Experimental: (§1) 12-week-old spontaneously hypertensive rats (hereinafter referred to as SHR, purchased from Beijing Weitong Lihua Experimental Animal Technology Co., Ltd.) were anesthetized with 2.5% sodium pentobarbital for intraperitoneal injection. After that, the blood pressure sensing catheter of hypertension implant was inserted into their abdominal aorta, while the implant was fixed to the abdominal wall, and then postoperative daily care was performed after suturing. Rats with systolic blood pressure exceeding 160 mm Hg were divided into 3 groups (control group, QR01019 group and QR01019K group) wherein each group has 8 rats. The control group was administrated 0.5% sodium carboxymethylcellulose (hereinafter referred to as CMC-Na); QR01019 group and QR01019K group were respectively administered, both of which were dissolved by 0.5% CMC-Na, by intragastric administration, at a dose of 1 mg/kg (calculated by the effective dose of Azilsartan) and a volume calculated by 4 mL/kg. The systolic blood pressure and heart rate of SHR were compared before and after administration (the systolic blood pressure and heart rate of SHR before administration as reference value), which were detected three times at each time point with the average value recorded.
# [2] = test system: spontaneously hypertensive rats; experiment: Antihypertensive efficacy test in spontaneously hypertensive rats: systolic blood pressure change; type: in vivo, rat; conditions: SHR; for antihypertensive effect compared with the corresponding unsalted compound: oral administration; for antihypertensive effect compared with the corresponding unsalted compound / systolic blood pressure compared with the control group: result in words; for systolic blood pressure compared with the control group: after 3 hours of administration; for Systolic blood pressure change, 1 hour after administration (average ± standard error) / Systolic blood pressure change, 3 hours after administration (average ± standard error) / Systolic blood pressure change, 5 hours after administration (average ± standard error) / Systolic blood pressure change, 7 hours after administration (average ± standard error) / Systolic blood pressure change, 10 hours after administration (average ± standard error) / Systolic blood pressure change, 24 hours after administration (average ± standard error): intragastric, 1 mg/kg (calculated by effective dose of Azilsartan), relative to before administration
# Experimental: as §1
SMILES,heart rate lowering effect compared with the corresponding unsalted compound [1],antihypertensive effect compared with the corresponding unsalted compound [2],other results
CCOc1nc2cccc(C(=O)OCOC(=O)C(C)(C)C)c2n1Cc1ccc(-c2ccccc2-c2noc(=O)[n-]2)cc1.[K+] [QR01005K],more potent and longer-lasting,more potent and longer-lasting,–
CCOc1nc2cccc(C(=O)OCCCCO[N+](=O)[O-])c2n1Cc1ccc(-c2ccccc2-c2noc(=O)[n-]2)cc1.[K+] [QR01008K],more potent and longer-lasting,more potent and longer-lasting,–
CCOc1nc2cccc(C(=O)OCc3c(-c4ccccc4)no[n+]3[O-])c2n1Cc1ccc(-c2ccccc2-c2noc(=O)[n-]2)cc1.[K+] [QR01009K],more potent and longer-lasting,more potent and longer-lasting,–
CCOc1nc2cccc(C(=O)OCCCCOc3no[n+]([O-])c3S(=O)(=O)c3ccccc3)c2n1Cc1ccc(-c2ccccc2-c2noc(=O)[n-]2)cc1.[K+] [QR01011K],more potent and longer-lasting,more potent and longer-lasting,–
CCOc1nc2cccc(C(=O)OCc3oc(=S)oc3C)c2n1Cc1ccc(-c2ccccc2-c2noc(=O)[n-]2)cc1.[K+] [QR01013K],more potent and longer-lasting,more potent and longer-lasting,–
CCOc1nc2cccc(C(=O)OCOC(=O)OCc3nc(C)c(C)nc3C)c2n1Cc1ccc(-c2ccccc2-c2noc(=O)[n-]2)cc1.[K+] [QR01017K],more potent and longer-lasting,more potent and longer-lasting,–
CCOc1nc2cccc(C(=O)OC(C)OC(=O)OCc3nc(C)c(C)nc3C)c2n1Cc1ccc(-c2ccccc2-c2noc(=O)[n-]2)cc1.[K+] (stereo not drawn) [QR01019K],more potent with a longer-lasting heart rate lowing effect,more potent with a longer-lasting antihypertensive effect,"Heart rate change, 1 hour after administration (average ± standard error) [1]: −3.6 ± 2.4 times/minute; Heart rate change, 3 hours after administration (average ± standard error) [1]: −5.0 ± 2.5 times/minute; Heart rate change, 5 hours after administration (average ± standard error) [1]: −10.1 ± 3.0 times/minute; Heart rate change, 7 hours after administration (average ± standard error) [1]: −17.5 ± 3.0 times/minute; Heart rate change, 10 hours after administration (average ± standard error) [1]: −25.4 ± 2.4 times/minute; Heart rate change, 24 hours after administration (average ± standard error) [1]: −28.6 ± 8 times/minute; systolic blood pressure compared with the control group [2]: significantly decreased; Systolic blood pressure change, 1 hour after administration (average ± standard error) [2]: −7.0 ± 3.4 mmHg; Systolic blood pressure change, 3 hours after administration (average ± standard error) [2]: −34.3 ± 1.9 mmHg; Systolic blood pressure change, 5 hours after administration (average ± standard error) [2]: −46.5 ± 2.5 mmHg; Systolic blood pressure change, 7 hours after administration (average ± standard error) [2]: −49.4 ± 4.1 mmHg; Systolic blood pressure change, 10 hours after administration (average ± standard error) [2]: −45.3 ± 3.3 mmHg; Systolic blood pressure change, 24 hours after administration (average ± standard error) [2]: −25.9 ± 3.4 mmHg"
CCOc1nc2cccc(C(=O)OC(C)OC(=O)OCc3nc(C)c(C)nc3C)c2n1Cc1ccc(-c2ccccc2-c2noc(=O)[nH]2)cc1 (stereo not drawn) [QR01019],–,–,"Heart rate change, 1 hour after administration (average ± standard error) [1]: −3.4 ± 2.6 times/minute; Heart rate change, 3 hours after administration (average ± standard error) [1]: −2.33 ± 2.6 times/minute; Heart rate change, 5 hours after administration (average ± standard error) [1]: −6.5 ± 2.8 times/minute; Heart rate change, 7 hours after administration (average ± standard error) [1]: −6.2 ± 3.0 times/minute; Heart rate change, 10 hours after administration (average ± standard error) [1]: −12.3 ± 2.8 times/minute; Heart rate change, 24 hours after administration (average ± standard error) [1]: −6.7 ± 2.6 times/minute; systolic blood pressure compared with the control group [2]: significantly decreased; Systolic blood pressure change, 1 hour after administration (average ± standard error) [2]: −4.9 ± 4.8 mmHg; Systolic blood pressure change, 3 hours after administration (average ± standard error) [2]: −22.0 ± 3.6 mmHg; Systolic blood pressure change, 5 hours after administration (average ± standard error) [2]: −30.5 ± 3.5 mmHg; Systolic blood pressure change, 7 hours after administration (average ± standard error) [2]: −38.8 ± 2.3 mmHg; Systolic blood pressure change, 10 hours after administration (average ± standard error) [2]: −33.0 ± 1.7 mmHg; Systolic blood pressure change, 24 hours after administration (average ± standard error) [2]: −10.2 ± 2.1 mmHg"
CCOc1nc2cccc(C(=O)OCOC(=O)OCc3no[n+]([O-])c3C)c2n1Cc1ccc(-c2ccccc2-c2noc(=O)[n-]2)cc1.[K+] [QR01020K],more potent and longer-lasting,more potent and longer-lasting,–
CCOc1nc2cccc(C(=O)OCc3no[n+]([O-])c3C)c2n1Cc1ccc(-c2ccccc2-c2noc(=O)[n-]2)cc1.[K+] [QR01023K],more potent and longer-lasting,more potent and longer-lasting,–
CCOc1nc2cccc(C(=O)OCc3no[n+]([O-])c3C(C)(C)C)c2n1Cc1ccc(-c2ccccc2-c2noc(=O)[n-]2)cc1.[K+] [QR01026K],more potent and longer-lasting,more potent and longer-lasting,–
CCOc1nc2cccc(C(=O)OCOC(=O)OCc3ccno3)c2n1Cc1ccc(-c2ccccc2-c2noc(=O)[n-]2)cc1.[K+] [QR01030K],more potent and longer-lasting,more potent and longer-lasting,–
CCOc1nc2cccc(C(=O)OCOC(=O)OCc3cn(C)cn3)c2n1Cc1ccc(-c2ccccc2-c2noc(=O)[n-]2)cc1.[K+] [QR01031K],more potent and longer-lasting,more potent and longer-lasting,–
CCOc1nc2cccc(C(=O)OCOC(=O)OCc3ccn(C)c3)c2n1Cc1ccc(-c2ccccc2-c2noc(=O)[n-]2)cc1.[K+] [QR01032K],more potent and longer-lasting,more potent and longer-lasting,–
CCOc1nc2cccc(C(=O)OC(C)OC(=O)OCc3ccn(C)c3)c2n1Cc1ccc(-c2ccccc2-c2noc(=O)[n-]2)cc1.[K+] (stereo not drawn) [QR01033K],more potent and longer-lasting,more potent and longer-lasting,–
CCOc1nc2cccc(C(=O)OCc3no[n+]([O-])c3CO[N+](=O)[O-])c2n1Cc1ccc(-c2ccccc2-c2noc(=O)[n-]2)cc1.[K+] [QR01034K],more potent and longer-lasting,more potent and longer-lasting,–
CCOc1nc2cccc(C(=O)OC3CCc4c3no[n+]4[O-])c2n1Cc1ccc(-c2ccccc2-c2noc(=O)[n-]2)cc1.[K+] (stereo not drawn) [QR01035K],more potent and longer-lasting,more potent and longer-lasting,–
CCOc1nc2cccc(C(=O)OCc3no[n+]([O-])c3C#N)c2n1Cc1ccc(-c2ccccc2-c2noc(=O)[n-]2)cc1.[K+] [QR01036K],more potent and longer-lasting,more potent and longer-lasting,–
